In brackets after ≈: the same amount, converted by molar mass.

The subject of experiment [1] is B. pseudomallei K96243. Format: in vivo, Burkholderia pseudomallei. As to conditions: Balb/c mice, lethal intranasal challenge; therapy from 4 hours post challenge for six consecutive days; FIG. 5.
In experiment [2] the test system is A. baumannii. In words: MIC of sulbactam+compound 1 versus Unasyn®+compound 1 (Example 2). As to conditions: equivalent total amount of sulbactam in both combinations; FIG. 2.
The subject of experiment [3] is Acinetobacter baumannii. In words: MIC summary, 600 strains of Acinetobacter baumannii (Example 8). The following applies: n = 600 strains; cmpd 1 and SUL each at 4 μg/mL where present.
The test system of experiment [4] is Pseudomonas aeruginosa. Put plainly: MIC summary, 600 strains of Pseudomonas aeruginosa (Example 8). As to conditions: n = 600 strains; cmpd 1 and SUL each at 4 μg/mL where present.
Experiment [5] concerns A. baumannii. Put plainly: MIC by broth microdilution (CLSI), panel of 60 A. baumannii clinical isolates (Example 1). The following applies: Acinetobacter baumannii. In general terms: Dilution methods test growth across graded concentrations, often in twofold steps.
Experiment [6] concerns A. baumannii. In words: MIC90 of common antibiotics+compound 1, 196 contemporary clinical isolates of A. baumannii (Example 4). As to conditions: B-lactam + Cmpd 1 (4 μg/mL).

Consider `C[C@H]1c2cccc(O)c2C(=O)C2=C(O)[C@]3(O)C(=O)C(C(N)=O)=C(O)[C@@H](N(C)C)[C@@H]3[C@@H](O)[C@@H]21` [doxycycline], for which the survivorship in experiment [1] is listed as 40%.

Consider `CC1(C)S[C@@H]2[C@H](NC(=O)[C@H](N)c3ccccc3)C(=O)N2[C@H]1C(=O)O` [ampicillin], for which, in experiment [2], the “effect of ampicillin on efficacy (MIC of Unasyn®+compound 1 versus sulbactam+compound 1)” value was “no effect on the efficacy”.

Turning to `C[C@@H](O)[C@H]1C(=O)N2C(C(=O)O)=C(S[C@@H]3CN[C@H](C(=O)N(C)C)C3)[C@H](C)[C@H]12` [Meropenem, meropenem], the MIC50 in experiment [3] was more than 8; in experiment [4], 0.5; in experiment [5] it was 16 µg/mL (≈ 41.7 µM). Also, the MIC90 is more than 8 in experiment [3], more than 8 in experiment [4], 32 µg/mL (≈ 83.4 µM) in experiment [5] and 16 µg/mL in experiment [6]. Also, the “MIC Max” value in experiment [3] is recorded as more than 8. In addition, the “MIC Min” value in experiment [3] turned out to be 0.0599. The minimal inhibitory concentration (MIC) in experiment [5] (strain ARC593, OXA-98) is 1 µg/mL (≈ 2.61 µM); in experiment [5] (strain ARC2058, OXA-95) it was 0.25 µg/mL (≈ 0.652 µM); in experiment [5] (strain ARC2461, OXA-66, TEM-1), 2 µg/mL (≈ 5.22 µM); in experiment [5] (strain ARC2462, TEM-1, OXA-66) it was 4 µg/mL (≈ 10.4 µM); in experiment [5] (strain ARC2598, OXA*, TEM-1, OXA-113), 8 µg/mL (≈ 20.9 µM); in experiment [5] (strain ARC2635, OXA-65, OXA-40, TEM-1), more than 32 µg/mL. Further, the MIC in experiment [5] (strain ARC2636, OXA-65, OXA-40, TEM-1) is more than 32 µg/mL; in experiment [5] (strain ARC2674, SHV-5, OXA-113), 8 µg/mL (≈ 20.9 µM); in experiment [5] (strain ARC2675, SHV-5, OXA-113), more than 32 µg/mL; in experiment [5] (strain ARC2681, OXA-40, TEM-1, OXA-132), 32 µg/mL (≈ 83.4 µM); in experiment [5] (strain ARC2682, SHV-5, OXA-113), 32 µg/mL (≈ 83.4 µM); in experiment [5] (strain ARC2777, OXA-172, TEM-1) it was 32 µg/mL (≈ 83.4 µM). The MIC in experiment [5] (strain ARC2778, OXA-40, TEM-1, OXA-65) was more than 32 µg/mL; in experiment [5] (strain ARC2779 (A. baumannii/calcoaceticus complex), OXA-2, VIM-2), 16 µg/mL (≈ 41.7 µM); in experiment [5] (strain ARC2780 (A. baumannii/calcoaceticus complex), OXA*, OXA-2, IMP-1), 32 µg/mL (≈ 83.4 µM); in experiment [5] (strain ARC2782, OXA-66, OXA-23, TEM-1, PER-1), 16 µg/mL (≈ 41.7 µM); in experiment [5] (strain ARC2788, OXA-65, TEM-1) it was 1 µg/mL (≈ 2.61 µM); in experiment [5] (strain ARC3484, TEM-1, OXA-23, OXA-64), 32 µg/mL (≈ 83.4 µM). The MIC in experiment [5] (strain ARC3485, OXA-82) was 16 µg/mL (≈ 41.7 µM); in experiment [5] (strain ARC3486, OXA-72, OXA-66, TEM-1), more than 32 µg/mL; in experiment [5] (strain ARC3487, OXA-20, OXA-58, OXA-66), 8 µg/mL (≈ 20.9 µM); in experiment [5] (strain ARC3488, OXA*, OXA-68) it was 4 µg/mL (≈ 10.4 µM); in experiment [5] (strain ARC3489, OXA*, OXA-68), 4 µg/mL (≈ 10.4 µM); in experiment [5] (strain ARC3490, TEM-1+, PSE-2, OXA-69), 0.5 µg/mL (≈ 1.3 µM). Besides, the minimum inhibitory concentration (MIC) in experiment [5] (strain ARC3491 (A. baumannii/calcoaceticus complex), OXA-215) was 2 µg/mL (≈ 5.22 µM); in experiment [5] (strain ARC3492, OXA-40, OXA-132, TEM-1) it was more than 32 µg/mL; in experiment [5] (strain ARC3493, OXA-40, OXA-66), more than 32 µg/mL; in experiment [5] (strain ARC3494, OXA-65), 0.25 µg/mL (≈ 0.652 µM); in experiment [5] (strain ARC3495, OXA-40, OXA-109) it was more than 32 µg/mL; in experiment [5] (strain ARC3513, TEM-1, OXA-23, OXA-65), 32 µg/mL (≈ 83.4 µM). Also, the minimum inhibitory concentration (MIC) was 4 µg/mL (≈ 10.4 µM) in experiment [5] (strain ARC3515, OXA-64, OXA-58); 2 µg/mL (≈ 5.22 µM) in experiment [5] (strain ARC3657, OXA-130); 32 µg/mL (≈ 83.4 µM) in experiment [5] (strain ARC3658, OXA-66, PER-1, TEM-1, OXA-23); 8 µg/mL (≈ 20.9 µM) in experiment [5] (strain ARC3659, OXA-23, OXA*); more than 32 µg/mL in experiment [5] (strain ARC3882, OXA-23, NDM-1, OXA-10*); more than 32 µg/mL in experiment [5] (strain ARC5073, OXA-23, TEM-1, OXA-64, PER-1). Also, the MIC was 8 µg/mL (≈ 20.9 µM) in experiment [5] (strain ARC5074, GES*, TEM-1, OXA-51); 32 µg/mL (≈ 83.4 µM) in experiment [5] (strain ARC5075, SHV-5, OXA-113); 32 µg/mL (≈ 83.4 µM) in experiment [5] (strain ARC5076, TEM-1, OXA-23, OXA-66); more than 32 µg/mL in experiment [5] (strain ARC5077, OXA*, OXA-72); more than 32 µg/mL in experiment [5] (strain ARC5079, OXA-72, OXA-65); more than 32 µg/mL in experiment [5] (strain ARC5080, OXA-71, OXA-40). The minimal inhibitory concentration (MIC) in experiment [5] (strain ARC5081, OXA-94, OXA-23) is 16 µg/mL (≈ 41.7 µM); in experiment [5] (strain ARC5082, OXA-66, OXA-23) it was more than 32 µg/mL; in experiment [5] (strain ARC5083, OXA-66, OXA-23), 16 µg/mL (≈ 41.7 µM); in experiment [5] (strain ARC5084, IMP-4(B), OXA-58, OXA-65) it was more than 32 µg/mL; in experiment [5] (strain ARC5085, OXA*, TEM-1), 8 µg/mL (≈ 20.9 µM); in experiment [5] (strain ARC5086, OXA*, TEM-1, OXA-72, OXA-66), more than 32 µg/mL. The MIC in experiment [5] (strain ARC5087, OXA-66, OXA-23) is 16 µg/mL (≈ 41.7 µM); in experiment [5] (strain ARC5088, OXA-20, OXA-58, OXA-66), 8 µg/mL (≈ 20.9 µM); in experiment [5] (strain ARC5089, PER*, TEM-1, OXA-23, OXA-66), 32 µg/mL (≈ 83.4 µM); in experiment [5] (strain ARC5091, OXA-82, OXA-23) it was 32 µg/mL (≈ 83.4 µM); in experiment [5] (strain ARC5092, OXA-23, OXA-64) it was 16 µg/mL (≈ 41.7 µM).

One may read the MIC as the lowest concentration found to suppress growth.
